In PubChem BioAssay (NCI):
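Dose response: 5 concentrations. Exposure: 48 h. Format: 96-well plates. Endpoint: linear interpolation; highest concentration if not reached. TGI denotes the concentration required for complete inhibition of growth.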

Tests used:
Assay in all cases: NCI-60 cell line screen, 48 h
[1] = tested on: HCT-15 colon
[2] = tested on: EKVX NSCLC
[3] = tested on: NCI-H460 lung
[4] = tested on: LOX IMVI melanoma
[5] = tested on: SR leukemia
[6] = tested on: HOP-92 NSCLC
[7] = tested on: BT-549 breast
[8] = tested on: CAKI-1 renal
[9] = tested on: HOP-62 NSCLC
[10] = tested on: UACC-257 melanoma
[11] = tested on: HS 578T breast
[12] = tested on: SK-MEL-5 melanoma
[13] = tested on: COLO 205 colon
[14] = tested on: OVCAR-8 ovarian
[15] = tested on: SK-MEL-28 melanoma
[16] = tested on: KM12 colon
[17] = tested on: MDA-N
[18] = tested on: OVCAR-5 ovarian
[19] = tested on: SK-OV-3 ovarian
[20] = tested on: M14 melanoma
[21] = tested on: MALME-3M melanoma
[22] = tested on: MDA-MB-435
[23] = tested on: 786-0 renal
[24] = tested on: ACHN renal
[25] = tested on: UO-31 renal
[26] = tested on: NCI-H522 lung
[27] = tested on: SNB-19 CNS
[28] = tested on: RPMI-8226 leukemia
[29] = tested on: HT29 colon
[30] = tested on: A549 NSCLC
[31] = tested on: SW-620 colon
[32] = tested on: SK-MEL-2 melanoma
[33] = tested on: MOLT-4 leukemia
[34] = tested on: OVCAR-4 ovarian
[35] = tested on: UACC-62 melanoma
[36] = tested on: K-562 leukemia
[37] = tested on: SF-295 CNS
[38] = tested on: PC-3 prostate
[39] = tested on: MCF7 breast
[40] = tested on: T-47D breast
[41] = tested on: HCC-2998 colon
[42] = tested on: NCI-H23 lung
[43] = tested on: HCT-116 colon
[44] = tested on: CCRF-CEM leukemia
[45] = tested on: U251 CNS
[46] = tested on: HL-60(TB) leukemia
[47] = tested on: SF-268 CNS
[48] = tested on: OVCAR-3 ovarian
[49] = tested on: NCI/ADR-RES ovarian
[50] = tested on: IGROV1 ovarian
[51] = tested on: A498 renal
[52] = tested on: SF-539 CNS
[53] = tested on: SN12C renal
[54] = tested on: TK-10 renal
[55] = tested on: MDA-MB-231 breast
[56] = tested on: DU-145 prostate
[57] = tested on: RXF 393 renal
[58] = tested on: SNB-75 CNS
[59] = tested on: NCI-H226 lung

Measured: TGI

O[C@@]12Cc3c([nH]c4ccccc34)[C@@H]3Oc4c(-c5ccccc5)ccc5c4[C@@]31CCN(CC1CC1)[C@@H]2C5
10.7 µM: [19]
3.45 µM: [10]
7.56 µM: [36] | [44]
3.5 µM: [37]
2.92 µM: [41]
3.24 µM: [15]
3.36 µM: [3] | [26]
2.79 µM: [51]
3.25 µM: [12]
23.4 µM: [7]
3.28 µM: [13]
6.58 µM: [49]
3.29 µM: [29]
3.35 µM: [16]
3.99 µM: [21]
3.09 µM: [45]
4.06 µM: [1]
> 100 µM: [5] | [28]
3.53 µM: [30]
3.06 µM: [9]
5.01 µM: [14]
11 µM: [33]
3.22 µM: [39]
11.1 µM: [8]
3.32 µM: [35]
14.7 µM: [47]
15.1 µM: [18]
7.03 µM: [34]
3.55 µM: [42]
4.48 µM: [46]
15 µM: [50]
3.23 µM: [17]
3.1 µM: [43]
3.04 µM: [23] | [48]
4 µM: [2]
4.71 µM: [40]
4.61 µM: [31]
3.11 µM: [25]
21.4 µM: [6]
3.31 µM: [20]
3.27 µM: [22]
2.75 µM: [24]
3.3 µM: [32]
3.95 µM: [27]
3.76 µM: [38]
4.62 µM: [11]
3.52 µM: [4]

CC(C)=CCc1cc(/C=C/C(=O)O)cc(CC=C(C)C)c1O
not listed: [15] | [21] | [40] | [41] | [57] | [58] | [59]
> 100 µM: all other assays above

COC1C(=O)CCC2(CO2)C1(O)C1(C)OC1CC=C(C)C (stereo unspecified)
80.8 µM: [35]
83.2 µM: [33]
76.3 µM: [36]
83.9 µM: [12]
53 µM: [39]
46.5 µM: [41]
53.2 µM: [20]
not listed: [4] | [21] | [26] | [28] | [44] | [46] | [49] | [52] | [59]
> 100 µM: all other assays above

Cc1c(C#N)c2nc3ccccc3n2c(=O)/c1=C/Nc1ccc(Cl)cc1
54.5 µM: [11]
77.9 µM: [55]
70.9 µM: [25]
35.7 µM: [54]
24.6 µM: [45]
47.4 µM: [35]
99.6 µM: [7]
20.7 µM: [23]
32.4 µM: [19]
25 µM: [24]
67.5 µM: [6]
61.5 µM: [37]
46.6 µM: [32]
40.9 µM: [20]
30.5 µM: [52]
59.8 µM: [42]
33.1 µM: [9]
72.5 µM: [51]
23.1 µM: [58]
25.6 µM: [57]
27.9 µM: [27]
not listed: [38] | [44] | [48] | [56]
> 100 µM: all other assays above

[O-][N+]1=C2CCC/C(=N/O)C2(O)C2CCCCC21N1CCOCC1 (stereo unspecified)
not listed: [6] | [28] | [46] | [51] | [56]
> 100 µM: all other assays above

CC(C)CC1N=C(OCc2ccccc2)OC1=O (stereo unspecified)
not listed: [5] | [13] | [35] | [41] | [46]
> 100 µM: all other assays above

Cn1c(=O)cc(Nc2ccc(N)cc2)[nH]c1=O
not listed: [46] | [56]
> 100 µM: all other assays above

CCc1ncc(CO)n1Cc1cccc2ccccc12
not listed: [4] | [5] | [33] | [41] | [44] | [46]
> 100 µM: all other assays above
